# What was measured:
# [1] = target: T1, Adenosine receptor A3 (Homo sapiens, UniProt P0DMS8)
# T1 sequence (P0DMS8 whole entry): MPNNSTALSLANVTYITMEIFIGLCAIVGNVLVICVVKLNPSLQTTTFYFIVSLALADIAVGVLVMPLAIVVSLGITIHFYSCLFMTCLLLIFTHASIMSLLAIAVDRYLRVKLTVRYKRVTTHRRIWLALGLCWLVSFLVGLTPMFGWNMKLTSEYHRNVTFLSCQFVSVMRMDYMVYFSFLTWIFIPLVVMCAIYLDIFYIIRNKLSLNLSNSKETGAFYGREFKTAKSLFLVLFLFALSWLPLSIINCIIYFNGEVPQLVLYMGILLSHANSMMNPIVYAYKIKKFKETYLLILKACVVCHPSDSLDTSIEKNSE
# [2] = target: T2, Muscarinic acetylcholine receptor M2 (Homo sapiens, UniProt P08172)
# T2 sequence (P08172 whole entry): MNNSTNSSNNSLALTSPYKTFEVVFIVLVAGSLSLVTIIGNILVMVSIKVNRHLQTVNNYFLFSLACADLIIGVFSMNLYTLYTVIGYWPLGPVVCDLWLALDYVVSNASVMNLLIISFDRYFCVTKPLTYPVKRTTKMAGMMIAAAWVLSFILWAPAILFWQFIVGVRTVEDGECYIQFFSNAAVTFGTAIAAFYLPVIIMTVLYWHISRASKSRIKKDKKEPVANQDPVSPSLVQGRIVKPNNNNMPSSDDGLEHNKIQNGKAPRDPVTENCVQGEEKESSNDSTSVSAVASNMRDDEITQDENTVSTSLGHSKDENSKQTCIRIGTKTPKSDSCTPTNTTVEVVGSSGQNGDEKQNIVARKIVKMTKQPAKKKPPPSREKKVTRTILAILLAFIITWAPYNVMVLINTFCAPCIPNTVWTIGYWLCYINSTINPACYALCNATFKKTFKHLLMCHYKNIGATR
# [3] = target: T3, Amine oxidase [flavin-containing] A (Homo sapiens, UniProt P21397); type: functional
# T3 sequence (P21397 whole entry): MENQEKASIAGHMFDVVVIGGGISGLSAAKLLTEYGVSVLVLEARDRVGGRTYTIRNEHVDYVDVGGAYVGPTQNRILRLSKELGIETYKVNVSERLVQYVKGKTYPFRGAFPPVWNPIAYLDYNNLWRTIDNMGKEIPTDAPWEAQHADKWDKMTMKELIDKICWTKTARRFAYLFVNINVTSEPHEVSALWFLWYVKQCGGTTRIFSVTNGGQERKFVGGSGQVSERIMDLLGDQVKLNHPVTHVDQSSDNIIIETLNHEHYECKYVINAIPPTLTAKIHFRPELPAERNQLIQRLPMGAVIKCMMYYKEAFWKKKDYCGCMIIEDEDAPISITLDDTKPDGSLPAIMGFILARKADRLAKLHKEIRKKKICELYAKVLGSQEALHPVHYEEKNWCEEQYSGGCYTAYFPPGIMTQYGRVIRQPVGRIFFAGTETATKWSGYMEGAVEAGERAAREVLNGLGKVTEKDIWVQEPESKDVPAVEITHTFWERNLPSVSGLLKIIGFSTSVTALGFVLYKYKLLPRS
# [4] = target: Sodium-dependent dopamine transporter (Homo sapiens, UniProt Q01959)
# [5] = target: T2, Muscarinic acetylcholine receptor M2; type: functional, cell-based
# [6] = target: D(1A) dopamine receptor (Homo sapiens, UniProt P21728); type: functional, cell-based
# [7] = target: Gamma-aminobutyric acid receptor subunit alpha-1 (Rattus norvegicus, UniProt P62813)
# [8] = target: T4, 5-hydroxytryptamine receptor 1A (Homo sapiens, UniProt P08908); type: functional, cell-based
# T4 sequence (P08908 whole entry): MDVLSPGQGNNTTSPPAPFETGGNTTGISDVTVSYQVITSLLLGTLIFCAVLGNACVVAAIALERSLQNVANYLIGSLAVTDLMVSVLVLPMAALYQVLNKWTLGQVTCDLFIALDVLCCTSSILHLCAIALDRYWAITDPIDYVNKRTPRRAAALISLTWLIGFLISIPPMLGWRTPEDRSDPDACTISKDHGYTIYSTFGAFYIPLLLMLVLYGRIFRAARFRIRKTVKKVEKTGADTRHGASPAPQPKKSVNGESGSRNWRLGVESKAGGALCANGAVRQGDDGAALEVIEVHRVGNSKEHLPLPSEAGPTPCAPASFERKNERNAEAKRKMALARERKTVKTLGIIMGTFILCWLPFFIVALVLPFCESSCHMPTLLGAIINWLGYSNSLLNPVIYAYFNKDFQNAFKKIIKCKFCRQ
# [9] = target: 5-hydroxytryptamine receptor 2A (Homo sapiens, UniProt P28223); type: functional, cell-based
# [10] = target: 5-hydroxytryptamine receptor 2B (Homo sapiens, UniProt P41595); type: functional, cell-based
# [11] = target: T5, 5-hydroxytryptamine receptor 2C (Homo sapiens, UniProt P28335)
# T5 sequence (P28335 whole entry): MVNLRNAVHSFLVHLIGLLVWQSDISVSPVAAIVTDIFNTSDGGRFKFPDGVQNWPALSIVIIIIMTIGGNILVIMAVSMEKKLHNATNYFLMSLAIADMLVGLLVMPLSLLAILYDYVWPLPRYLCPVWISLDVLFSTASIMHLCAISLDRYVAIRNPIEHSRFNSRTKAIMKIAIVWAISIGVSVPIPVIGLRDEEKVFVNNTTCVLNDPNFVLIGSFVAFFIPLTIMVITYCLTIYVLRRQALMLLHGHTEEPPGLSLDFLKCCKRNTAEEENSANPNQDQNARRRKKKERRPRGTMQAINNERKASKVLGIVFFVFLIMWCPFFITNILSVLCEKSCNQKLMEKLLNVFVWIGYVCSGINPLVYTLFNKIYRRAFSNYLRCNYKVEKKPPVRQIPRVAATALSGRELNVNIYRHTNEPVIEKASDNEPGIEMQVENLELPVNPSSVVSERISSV
# [12] = target: Melanocortin receptor 4 (Homo sapiens, UniProt P32245)
# [13] = target: Delta-type opioid receptor (Homo sapiens, UniProt P41143)
# [14] = target: Mu-type opioid receptor (Homo sapiens, UniProt P35372); assay: biochemical; type: functional
# [15] = target: T3, Amine oxidase [flavin-containing] A; type: functional; remark: listed apart in the source
# Note: assay procedure not described here.
# Delta-type opioid receptor, sequence (P41143 whole entry): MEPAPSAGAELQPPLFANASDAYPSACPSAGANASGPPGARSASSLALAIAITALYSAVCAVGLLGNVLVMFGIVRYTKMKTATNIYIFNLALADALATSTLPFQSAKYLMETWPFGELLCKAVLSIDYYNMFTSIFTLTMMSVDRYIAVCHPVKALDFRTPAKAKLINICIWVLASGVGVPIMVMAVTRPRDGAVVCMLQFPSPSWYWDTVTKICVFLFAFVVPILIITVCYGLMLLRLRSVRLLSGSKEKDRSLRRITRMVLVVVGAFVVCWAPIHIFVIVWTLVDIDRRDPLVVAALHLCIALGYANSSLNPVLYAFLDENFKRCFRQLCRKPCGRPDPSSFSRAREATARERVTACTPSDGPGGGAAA
# D(1A) dopamine receptor, sequence (P21728 whole entry): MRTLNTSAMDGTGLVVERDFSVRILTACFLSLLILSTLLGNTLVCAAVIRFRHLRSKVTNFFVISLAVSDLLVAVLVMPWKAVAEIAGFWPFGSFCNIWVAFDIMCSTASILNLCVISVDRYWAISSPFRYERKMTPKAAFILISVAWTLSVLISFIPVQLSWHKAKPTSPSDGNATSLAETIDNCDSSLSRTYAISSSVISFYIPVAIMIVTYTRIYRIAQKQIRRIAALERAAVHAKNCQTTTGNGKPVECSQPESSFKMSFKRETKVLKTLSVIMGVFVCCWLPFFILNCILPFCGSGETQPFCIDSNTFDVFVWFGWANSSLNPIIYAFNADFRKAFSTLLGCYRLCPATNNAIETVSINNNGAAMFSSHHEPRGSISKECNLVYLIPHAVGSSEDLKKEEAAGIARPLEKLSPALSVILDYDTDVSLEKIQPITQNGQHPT
# Gamma-aminobutyric acid receptor subunit alpha-1, sequence (P62813 whole entry): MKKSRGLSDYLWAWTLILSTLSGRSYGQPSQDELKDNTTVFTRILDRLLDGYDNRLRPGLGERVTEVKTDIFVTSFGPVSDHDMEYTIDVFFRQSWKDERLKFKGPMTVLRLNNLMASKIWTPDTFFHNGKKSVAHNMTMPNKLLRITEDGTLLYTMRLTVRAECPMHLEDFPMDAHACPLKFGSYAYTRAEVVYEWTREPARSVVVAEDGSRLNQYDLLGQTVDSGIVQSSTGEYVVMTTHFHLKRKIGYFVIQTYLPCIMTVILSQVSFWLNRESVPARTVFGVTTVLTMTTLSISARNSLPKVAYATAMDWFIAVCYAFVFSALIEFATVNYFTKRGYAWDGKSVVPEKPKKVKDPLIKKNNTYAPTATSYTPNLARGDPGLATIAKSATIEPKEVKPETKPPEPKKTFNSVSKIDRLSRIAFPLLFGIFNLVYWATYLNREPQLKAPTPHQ
# Melanocortin receptor 4, sequence (P32245 whole entry): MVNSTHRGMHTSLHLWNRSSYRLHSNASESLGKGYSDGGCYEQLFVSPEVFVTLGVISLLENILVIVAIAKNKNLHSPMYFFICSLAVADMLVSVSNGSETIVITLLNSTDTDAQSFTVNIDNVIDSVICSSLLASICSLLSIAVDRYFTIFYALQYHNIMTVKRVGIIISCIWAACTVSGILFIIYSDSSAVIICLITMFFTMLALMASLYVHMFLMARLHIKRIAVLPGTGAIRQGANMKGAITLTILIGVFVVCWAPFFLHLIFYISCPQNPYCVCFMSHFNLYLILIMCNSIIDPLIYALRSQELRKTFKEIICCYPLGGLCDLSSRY
# Mu-type opioid receptor, sequence (P35372 whole entry): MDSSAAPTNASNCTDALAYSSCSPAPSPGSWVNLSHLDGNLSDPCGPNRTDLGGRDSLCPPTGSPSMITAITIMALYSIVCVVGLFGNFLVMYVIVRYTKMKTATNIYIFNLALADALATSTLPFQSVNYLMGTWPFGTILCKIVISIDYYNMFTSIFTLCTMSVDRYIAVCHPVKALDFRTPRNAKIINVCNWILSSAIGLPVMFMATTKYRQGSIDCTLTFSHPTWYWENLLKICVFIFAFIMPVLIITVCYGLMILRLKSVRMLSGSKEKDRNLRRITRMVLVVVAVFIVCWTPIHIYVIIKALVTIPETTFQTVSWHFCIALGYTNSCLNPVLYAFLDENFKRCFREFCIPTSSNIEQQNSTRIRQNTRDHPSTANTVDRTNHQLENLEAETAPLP
# Sodium-dependent dopamine transporter, sequence (Q01959 whole entry): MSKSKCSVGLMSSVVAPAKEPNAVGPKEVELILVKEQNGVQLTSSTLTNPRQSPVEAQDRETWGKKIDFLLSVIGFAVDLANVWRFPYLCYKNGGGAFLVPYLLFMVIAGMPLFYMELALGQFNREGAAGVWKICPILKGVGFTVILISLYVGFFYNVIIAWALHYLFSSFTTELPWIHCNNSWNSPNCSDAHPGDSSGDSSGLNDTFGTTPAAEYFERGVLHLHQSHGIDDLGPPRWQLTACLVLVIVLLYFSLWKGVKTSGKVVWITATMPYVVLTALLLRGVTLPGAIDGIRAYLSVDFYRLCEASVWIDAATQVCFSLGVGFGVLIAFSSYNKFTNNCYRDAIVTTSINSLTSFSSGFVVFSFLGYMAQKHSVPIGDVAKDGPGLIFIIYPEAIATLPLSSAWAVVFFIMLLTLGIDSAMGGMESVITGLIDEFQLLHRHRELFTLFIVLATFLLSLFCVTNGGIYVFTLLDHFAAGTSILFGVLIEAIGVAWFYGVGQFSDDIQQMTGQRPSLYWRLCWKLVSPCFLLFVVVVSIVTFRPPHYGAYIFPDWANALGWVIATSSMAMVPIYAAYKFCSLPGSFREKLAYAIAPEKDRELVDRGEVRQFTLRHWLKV
# 5-hydroxytryptamine receptor 2B, sequence (P41595 whole entry): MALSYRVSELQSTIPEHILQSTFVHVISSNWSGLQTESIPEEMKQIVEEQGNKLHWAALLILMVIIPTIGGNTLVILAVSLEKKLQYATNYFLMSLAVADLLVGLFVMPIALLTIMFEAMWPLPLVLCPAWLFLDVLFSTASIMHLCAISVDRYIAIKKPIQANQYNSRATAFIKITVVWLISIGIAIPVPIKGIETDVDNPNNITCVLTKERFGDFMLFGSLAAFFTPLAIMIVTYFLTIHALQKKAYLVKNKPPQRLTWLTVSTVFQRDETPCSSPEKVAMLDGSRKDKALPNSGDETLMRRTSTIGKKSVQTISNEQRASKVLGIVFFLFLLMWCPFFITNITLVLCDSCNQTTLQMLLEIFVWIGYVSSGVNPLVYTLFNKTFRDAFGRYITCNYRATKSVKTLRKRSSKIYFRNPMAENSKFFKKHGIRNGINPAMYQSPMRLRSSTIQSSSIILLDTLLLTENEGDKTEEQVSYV
# 5-hydroxytryptamine receptor 2A, sequence (P28223 whole entry): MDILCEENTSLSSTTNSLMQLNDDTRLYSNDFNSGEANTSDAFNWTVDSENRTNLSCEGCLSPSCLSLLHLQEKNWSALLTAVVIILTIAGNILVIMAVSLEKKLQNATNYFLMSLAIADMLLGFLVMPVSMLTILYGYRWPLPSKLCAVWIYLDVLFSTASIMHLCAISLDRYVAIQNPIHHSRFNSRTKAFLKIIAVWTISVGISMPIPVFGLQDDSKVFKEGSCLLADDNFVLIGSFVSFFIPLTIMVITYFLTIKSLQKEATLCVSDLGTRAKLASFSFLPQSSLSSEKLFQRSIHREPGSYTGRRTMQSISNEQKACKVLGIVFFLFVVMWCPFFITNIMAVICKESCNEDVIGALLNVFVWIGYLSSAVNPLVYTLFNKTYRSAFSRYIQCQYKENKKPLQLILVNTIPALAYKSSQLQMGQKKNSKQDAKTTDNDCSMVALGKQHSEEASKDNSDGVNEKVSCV
Compound,AC50 [1] [µM],AC50 [2] [µM],AC50 [3] [µM],AC50 [4] [µM],AC50 [5] [µM],AC50 [6] [µM],AC50 [7] [µM],AC50 [8] [µM],AC50 [9] [µM],AC50 [10] [µM],AC50 [11] [µM],AC50 [12] [µM],AC50 [13] [µM],AC50 [14] [µM],AC50 [15] [µM]
O=C1c2c(O)c(=O)ccn2N([C@@H]2c3ccccc3SCc3c2ccc(F)c3F)[C@@H]2COCCN12 [BALOXAVIR],> 30,> 30,> 30,> 30,,,,,,,,,,,
C(=N\NC1=NCCN1)/c1c2ccccc2c(/C=N/NC2=NCCN2)c2ccccc12 [BISANTRENE],2.01,2.74,> 30,9.57,,,,,,,,,,,
CC(C)NCC(O)COc1ccc(COCCOC(C)C)cc1 (stereo unspecified) [BISOPROLOL],,,,,> 10,> 10,> 10,> 10,> 30,> 10,> 30,> 30,> 10,> 30,> 10
CCO/N=C(\C(=O)N[C@@H]1C(=O)N2C(C(=O)[O-])=C(Sc3nc(-c4cc[n+](C)cc4)cs3)CS[C@H]12)c1nsc(N)n1 [CEFTAROLINE],> 30,> 30,> 30,> 30,,,,,,,,,,,
Cc1cc(O)cc(C)c1Cl [CHLOROXYLENOL],> 30,> 30,> 30,> 30,,,,,,,,,,,
C[N+](C)(C)CCCCCCCCCC[N+](C)(C)C [DECAMETHONIUM],> 30,> 30,> 30,> 30,,,,,,,,,,,
O=C1c2ccccc2C(=O)C1C(=O)C(c1ccccc1)c1ccccc1 [DIPHENADIONE],0.716,> 30,> 30,> 30,,,,,,,,,,,
CCOC(=O)c1ccc(O)cc1 [ETHYLPARABEN],> 30,> 30,> 30,> 30,,,,,,,,,,,
O=C1[C@H](CC[C@H](O)c2ccc(F)cc2)[C@@H](c2ccc(O)cc2)N1c1ccc(F)cc1 [EZETIMIBE],6.34,> 30,> 30,19.5,,,,,,,,,,,
O=C(COc1ccc(Cl)cc1)N1CCN(Cc2ccc3c(c2)OCO3)CC1 [FIPEXIDE],> 30,> 30,> 30,12.9,,,,,,,,,,,
Cc1c(-c2ccccc2)oc2c(C(=O)OCCN3CCCCC3)cccc2c1=O [FLAVOXATE],5.29,3.39,> 30,> 30,,,,,,,,,,,
CCC(=O)c1c(O)cc(O)cc1O [FLOPROPIONE],> 30,> 30,> 30,> 30,,,,,,,,,,,
CC1(C)O[C@@H]2C[C@H]3[C@@H]4C[C@H](F)C5=CC(=O)CC[C@]5(C)[C@H]4[C@@H](O)C[C@]3(C)[C@]2(C(=O)CO)O1 [FLURANDRENOLIDE],> 30,> 30,> 30,> 30,,,,,,,,,,,
C#C[C@]1(O)CC[C@H]2[C@@H]3CCC4=CC(=O)CC[C@@H]4[C@H]3CC[C@@]21CC [LEVONORGESTREL],> 30,> 30,> 30,> 30,,,,,,,,,,,
OC[C@@H](O)[C@@H](O)[C@H](O)[C@H](O)CO [MANNITOL],> 30,> 30,> 30,> 30,,,,,,,,,,,
CN1CCCC(CN2c3ccccc3Sc3ccccc32)C1 (stereo unspecified) [MEPAZINE],> 30,0.347,> 30,27.7,,,,,,,,,,,
Sc1ncnc2nc[nH]c12 [MERCAPTOPURINE ANHYDROUS],> 30,> 30,> 30,> 30,,,,,,,,,,,
C[N+]1(C)[C@@H]2C[C@@H](OC(=O)[C@H](CO)c3ccccc3)C[C@H]1[C@@H]1O[C@@H]12 [METHSCOPOLAMINE],> 30,,> 30,> 30,,,,,,,,,,,
CN1C(=O)CC(C)(c2ccccc2)C1=O (stereo unspecified) [METHSUXIMIDE],,,,,> 10,> 30,> 10,> 10,> 10,> 10,> 30,> 10,> 30,> 30,> 10
C[C@H]1C[C@@H]2[C@H]([C@@H](O)C[C@@]3(C)[C@H]2CC[C@]3(O)C(=O)CO)[C@@]2(C)C=CC(=O)C=C12 [METHYLPREDNISOLONE],,,,,> 10,> 30,> 10,> 10,,> 10,> 30,> 10,> 30,> 30,> 30
CC(=O)Oc1c(C)cc(OCC(O)CNC(C)C)c(C)c1C (stereo unspecified) [METIPRANOLOL],> 30,> 30,> 30,> 30,,,,,,,,,,,
O=C1CC[C@@]2(O)[C@H]3Cc4ccc(O)c5c4[C@@]2(CCN3CC2CC2)[C@H]1O5 [NALTREXONE],> 30,> 30,> 30,> 30,,,,,,,,,,,
COC(=O)C1=C(C)NC(C)=C(C(=O)OCC(C)C)C1c1ccccc1[N+](=O)[O-] (stereo unspecified) [NISOLDIPINE],,,,,> 10,> 30,> 10,> 10,,17,> 30,> 10,> 30,> 30,> 10
NC1=NC(=O)C(c2ccccc2)O1 (stereo unspecified) [PEMOLINE],,,,,> 10,> 10,> 10,> 10,,> 10,> 30,> 30,> 30,> 30,> 10
CC(N/C(=N\C#N)Nc1ccncc1)C(C)(C)C (stereo unspecified) [PINACIDIL ANHYDROUS],> 30,> 30,> 30,> 30,,,,,,,,,,,
NC[C@H]1CC[C@H](C(=O)O)CC1 [TRANEXAMIC ACID],,,,,> 10,> 30,> 10,> 10,,> 10,> 30,> 10,> 30,> 30,> 10
